According to article PMC10214526, “Semisynthetic LC3 Probes for Autophagy Pathways Reveal a Noncanonical LC3 Interacting Region Motif Crucial for the Enzymatic Activity of Human ATG3” (ACS Central Science, 2023):
Where no end group is shown, it is not given here.

Legend:
[1] = system: ATG3; assay: Reaction (cross-linking) of Ubl activity-based probes with recombinant ATG3 and variants; type: biochemical, human; conditions: for Reaction with ATG3 C0: ATG3 C0 (no cysteines) 15 μM; for Reaction with ATG3 C1: ATG3 C1 (only active-site C264) 15 μM; for Reaction with ATG3 ΔLIR: ATG3 C1 ΔLIR (Δ95–111) 15 μM
Experimental: Figure 1 Modification of ATG3 with GABARAP ABPs depends on LIR^ATG3. a. Characterization of GABARAP activity-based probes, 1 and 2, obtained by hydrazide-acylation. Deconvoluted mass-spectrum (ESI) of GABARAP(ΔG116)–NHNH α-chloroacetyl 1. Expected mass 13707 Da. Deconvoluted mass-spectrum (ESI) of GABARAP(ΔG116)–NHNH methyl-fumarate 2. Expected mass 13743 Da. b. […] The reaction was allowed to proceed for 1 h and was analyzed by SDS-PAGE and Coomassie Blue staining. c. ColabFold-predicted structure of the protein-complex of ATG3 and GABARAP. Side-chain atoms are shown for the predicted LIR motif in ATG3 (90–112). d. Reaction of 2 (15 μM) with ATG3 variants C1, C0, and ΔLIR (15 μM). ATG3 C1 contains only active-site cysteine C264. ATG3 C0 contains no cysteines. ATG3 ΔLIR lacks amino acids 95–111. Reaction was allowed to proceed for 1 h and was analyzed by SDS-PAGE and Coomassie Blue staining. Full-gel images for b and d are available in the Supplementary Information.
We were intrigued by the cross-linking efficiency of 2 with ATG3 and sought to investigate the origin of this efficiency by generating a C1 variant of ATG3 that only contains the catalytic cysteine 264 and a corresponding C0 variant containing no cysteines. […] In general, the affinity of E2s for their cognate Ubls are quite low, as the thioester transfer from the E1 to the E2 enzyme is facilitated by additional interactions from the UFD domain of the E1 enzyme.[23] […]
Upon completion the solution was dialyzed against 25 mM
HEPES, 200 mM NaCl pH 7.2 at 4 °C. Cleaved intein was removed using gravity Ni-NTA purification.
The flow-through was collected and combined with resin washes. The combined fractions were dialyzed and further purified using ion exchange.
3.3. Generation of GABARAP and LC3A hydrazides from SUMO-GABARAP/LC3A-Mxe GyrA-
SUMO-GABARAP/LC3A-Mxe GyrA-His6 fusion after Ni-NTA purification was dialyzed against intein cleavage buffer (25 mM HEPES, 500 mM NaCl, 1 mM EDTA pH 7.2 at 4 °C). After dialysis hydrazine monohydrate (75 mM) and MESNa (10 mM) was added and the pH adjusted to 7.8. The solution was allowed to stand at room temperature and monitored using LC-MS analysis. Upon completion the solution was dialyzed against 25 mM HEPES, 500 mM NaCl pH 7.2 at 4 °C. SENP1 (1 wt%) was added to cleave the SUMO-tag. The cleaved intein was removed using gravity Ni-NTA purification. […]
dialyzed and further purified using cation exchange using a buffer 25 mM Tris pH 8.0 and a gradient of […] in the same buffer over 25 column volumes. The product fractions were pooled, concentrated, and stored at –80 °C until further use.
3.4. Synthesis of symmetrical anhydrides
The carboxylic acid was dissolved in CH2Cl2 (300 mM) and dicyclohexylcarbodiimide (0.5 eqiv) was added in one portion. The reaction was stirred under N2 for 18 h. The suspension was filtered and concentrated to ~10% of the initial volume. The solution was placed at 4 °C for 1 h and filtered again.
The filtrate was concentrated to obtain the symmetrical anhydride which was used without further purification. Anhydrides can be stored at –20 °C for weeks.
3.5. Reaction of modified Ubl probes with E2s
Ubl probes (15 μM) were mixed with E2s (15 μM) in PBS. The mixture was incubated at 37 °C in a water bath for 0.5-3 h. The reaction was quenched by addition of 2x Laemmli buffer and boiled at 95 °C for 5 min. Samples were resolved by SDS-PAGE (8-16%, Bio-Rad) and visualized by […]
Coomassie staining. […]

[2] = system: ATG3; assay: as above; type: biochemical, human; conditions: probe 15 μM; ATG3 wt, C264A and ΔLIR 5 μM; SDS-PAGE (Figure S9)
[3] = target: T1, LC3A (Homo sapiens, UniProt Q9H492); assay: Fluorescence polarization binding of fluorescein-modified LIR^ATG3 peptides to LC3A
T1 construct: His6-SUMO (pOPINS) (N, cleaved yes); made in house; host or cells: E. coli Rosetta-CodonPlus (DE3)-RIL
Source text: (§1) Figure 2 Characterization of LIR^ATG3. a. Reaction scheme outlining competition assay used for b, c, and d. b. Coomassie Blue-stained SDS-PAGE analysis for reaction of 2 with ATG3 C1 in the presence of varying concentrations of linear LIR^ATG3 peptide 5 as outlined in a. c. Coomassie Blue-stained SDS-PAGE analysis for reaction of 2 with ATG3 C1 in the presence of varying concentrations of cyclized LIR^ATG3 peptide 6 as outlined in a. d. Quantification of competition assays shown in b and c. The amount of GABARAP–ATG3 C1 complex was quantified by gel-densitometry and normalized to the reaction without peptide for each gel. […] Data are presented as average values ± s.d. e. Fluorescence polarization binding-data of fluorescein-modified LIR^ATG3 peptide binding to GABARAP. Either linear, cyclized, or truncated (103–111) LIR^ATG3 peptide was used. […] Fluorescence polarization data of fluorescein-modified LIR^ATG3 peptide binding to LC3A. […]
(§2) 3.13.Fluorescence polarization measurement
(§3) Fluorescent peptides were dissolved in DMSO and PBS. The concentration was determined by UV - absorption and extinction coefficient at 280 nm. […] Protein concentration was determined using UV-absorption and extinction coefficient at 280 nm. […]
(§4) 0.047 μM. […] Fluorescence polarization and intensity was measured on a Victor Nivo Plate Reader (Perkin Elmer). […]

[4] = target: T2, GABARAP (Homo sapiens, UniProt O95166); assay: Fluorescence polarization binding of fluorescein-modified LIR^ATG3 peptides to GABARAP; conditions: response letter; truncated LIR peptide (103–111)
T2 construct: His6-SUMO (pOPINS) (N, cleaved yes); made in house; host or cells: E. coli Rosetta-CodonPlus (DE3)-RIL
T2 sequence (O95166 whole entry, the tested form may be a part): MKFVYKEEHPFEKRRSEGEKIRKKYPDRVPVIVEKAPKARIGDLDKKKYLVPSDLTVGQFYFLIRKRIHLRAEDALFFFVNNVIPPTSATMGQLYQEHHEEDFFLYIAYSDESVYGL
Source text: as §1, §2, §3, §4

With “Ub(ΔGG)–NHNH methyl fumarate [Ub(ΔGG) methyl fumarate probe, reference compound]” the “Reaction with ATG3 wt” value ([1]; probe 15 μM, ATG3 15 μM, 1 h, SDS-PAGE, Coomassie Blue) was “did not react”.
With “GABARAP(ΔG116)–NHNH α-chloroacetyl [compound 1]” the “LIR dependence of ATG3 wild-type modification” value [2] was “dependent on LIRATG3”, the “LIR dependence of cross-linking with ATG3” value ([1]; ATG3 with or without LIR) was “strictly dependent on LIR^ATG3” and the “Cross-linking with ATG3 C1 vs C0” value ([1]; probe 1 15 μM, ATG3 C1 or C0 15 μM, 1 h (Figure S2)) was “Cross-linking was only observed for ATG3 C1”.
For “truncated LIR^ATG3: fluorescein-modified truncated (103–111) LIR^ATG3 peptide, amino acids G103-Y111 including the core LIR motif (GDGGWVDTY; also: fluorescein, position not given here)”, the “fold weaker binding of truncated peptide than linear peptide” value ([3]; GABARAP or LC3A not stated, truncated (103–111) vs linear) was 6 fold, the “fold weaker affinity of truncated peptide, LC3A” value ([3]; response letter, truncated LIR peptide lacking amino acids 104-95) was greater than 8 fold and the “fold weaker affinity of truncated peptide, GABARAP” value [4] was greater than 8 fold.
“LC3A(ΔG120)–NHNH methyl fumarate [compound 4]” was tested, and the “Reaction with ATG3 C0” value ([1]; probe 15 μM, SDS-PAGE) was “no reaction”, the “Reaction with ATG3 C1” value ([1]; probe 15 μM, SDS-PAGE) was “efficient reaction” and the “Reaction with ATG3 ΔLIR” value ([1]; probe 15 μM, SDS-PAGE) was “no reaction”.
In the case of “LC3A(ΔG120)–NHNH α-chloroacetyl [compound 3]”, the “Reaction with ATG3 C0” value ([1]; probe 15 μM, SDS-PAGE) is reported as “no reaction”, the “Reaction with ATG3 C1” value ([1]; probe 15 μM, SDS-PAGE) is reported as “efficient reaction” and the “Reaction with ATG3 ΔLIR” value ([1]; probe 15 μM, SDS-PAGE) is reported as “no reaction”.
